# Experimental data from ChEMBL document CHEMBL1145498, “A systematic interaction map of validated kinase inhibitors with Ser/Thr kinases” (Proc Natl Acad Sci U S A, 2007).
# Tests used:
# [1] = target: Calcium/calmodulin-dependent protein kinase type II subunit gamma (Homo sapiens) (UniProt Q13555)
# [2] = target: T1, Calcium/calmodulin-dependent protein kinase type IV (Homo sapiens) (UniProt Q16566)
# T1 sequence (whole entry): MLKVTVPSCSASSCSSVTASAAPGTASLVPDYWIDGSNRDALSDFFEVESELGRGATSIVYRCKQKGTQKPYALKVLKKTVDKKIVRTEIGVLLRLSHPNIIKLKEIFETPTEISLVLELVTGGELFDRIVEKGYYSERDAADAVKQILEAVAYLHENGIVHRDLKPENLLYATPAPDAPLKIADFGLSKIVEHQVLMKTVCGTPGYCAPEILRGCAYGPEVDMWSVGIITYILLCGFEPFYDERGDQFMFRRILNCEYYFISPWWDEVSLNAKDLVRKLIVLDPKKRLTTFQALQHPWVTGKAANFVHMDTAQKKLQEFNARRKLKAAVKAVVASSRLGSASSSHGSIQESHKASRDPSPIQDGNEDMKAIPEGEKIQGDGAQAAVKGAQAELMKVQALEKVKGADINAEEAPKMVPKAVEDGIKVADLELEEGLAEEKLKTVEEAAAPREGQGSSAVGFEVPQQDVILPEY
# [3] = target: Casein kinase I isoform gamma-3 (Homo sapiens) (UniProt Q9Y6M4)
# Sequence of Casein kinase I isoform gamma-3 (Homo sapiens) (Q9Y6M4 whole entry, looked up, canonical isoform): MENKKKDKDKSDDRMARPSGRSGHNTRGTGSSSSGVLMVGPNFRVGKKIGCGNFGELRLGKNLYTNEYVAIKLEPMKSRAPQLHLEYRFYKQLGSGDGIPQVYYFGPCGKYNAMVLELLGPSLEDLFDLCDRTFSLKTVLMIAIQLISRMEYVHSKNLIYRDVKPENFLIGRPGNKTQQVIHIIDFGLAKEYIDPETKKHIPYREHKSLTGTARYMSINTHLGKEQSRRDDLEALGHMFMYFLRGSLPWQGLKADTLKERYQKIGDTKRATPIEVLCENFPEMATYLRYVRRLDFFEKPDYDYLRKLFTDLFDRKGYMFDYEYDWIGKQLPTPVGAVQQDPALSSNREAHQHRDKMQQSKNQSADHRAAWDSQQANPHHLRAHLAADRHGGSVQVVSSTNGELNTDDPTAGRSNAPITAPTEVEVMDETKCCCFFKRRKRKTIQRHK
# [4] = target: T2, Dual specificity mitogen-activated protein kinase kinase 6 (Homo sapiens) (UniProt P52564)
# T2 sequence (whole entry): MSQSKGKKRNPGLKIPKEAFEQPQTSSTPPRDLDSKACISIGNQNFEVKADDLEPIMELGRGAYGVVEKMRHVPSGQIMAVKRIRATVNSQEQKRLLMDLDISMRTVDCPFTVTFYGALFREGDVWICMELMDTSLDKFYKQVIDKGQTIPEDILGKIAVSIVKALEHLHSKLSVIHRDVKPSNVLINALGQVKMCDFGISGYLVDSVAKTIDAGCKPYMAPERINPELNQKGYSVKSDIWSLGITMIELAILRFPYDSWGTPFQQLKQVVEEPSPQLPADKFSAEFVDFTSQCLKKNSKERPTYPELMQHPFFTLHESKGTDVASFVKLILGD
# [5] = target: Mitogen-activated protein kinase 11 (Homo sapiens, UniProt Q15759)
# [6] = target: Mitogen-activated protein kinase 6 (Homo sapiens) (UniProt Q16659)
# Sequence of Mitogen-activated protein kinase 6 (Homo sapiens) (Q16659 whole entry): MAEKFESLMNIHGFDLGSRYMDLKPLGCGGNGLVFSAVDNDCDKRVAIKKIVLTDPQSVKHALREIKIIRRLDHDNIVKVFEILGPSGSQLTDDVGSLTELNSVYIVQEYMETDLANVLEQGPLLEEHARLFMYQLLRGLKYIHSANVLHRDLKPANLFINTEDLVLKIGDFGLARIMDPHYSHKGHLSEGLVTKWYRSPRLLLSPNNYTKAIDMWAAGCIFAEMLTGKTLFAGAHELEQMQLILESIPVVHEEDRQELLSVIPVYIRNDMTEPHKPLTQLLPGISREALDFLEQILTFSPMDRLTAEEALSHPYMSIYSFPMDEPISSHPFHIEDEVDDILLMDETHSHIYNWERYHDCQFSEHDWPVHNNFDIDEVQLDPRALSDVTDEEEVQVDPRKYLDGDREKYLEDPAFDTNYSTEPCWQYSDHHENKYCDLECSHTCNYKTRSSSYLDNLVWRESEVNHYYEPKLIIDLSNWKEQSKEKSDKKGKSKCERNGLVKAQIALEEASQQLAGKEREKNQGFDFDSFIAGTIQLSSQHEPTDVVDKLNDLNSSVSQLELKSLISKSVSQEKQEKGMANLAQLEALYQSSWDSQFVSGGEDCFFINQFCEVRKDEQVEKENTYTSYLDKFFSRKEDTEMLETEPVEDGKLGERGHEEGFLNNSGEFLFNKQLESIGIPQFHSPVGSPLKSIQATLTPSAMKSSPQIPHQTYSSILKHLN
# [7] = target: Serine/threonine-protein kinase PAK 4 (Homo sapiens) (UniProt O96013)
# Sequence of Serine/threonine-protein kinase PAK 4 (Homo sapiens) (O96013 whole entry, looked up): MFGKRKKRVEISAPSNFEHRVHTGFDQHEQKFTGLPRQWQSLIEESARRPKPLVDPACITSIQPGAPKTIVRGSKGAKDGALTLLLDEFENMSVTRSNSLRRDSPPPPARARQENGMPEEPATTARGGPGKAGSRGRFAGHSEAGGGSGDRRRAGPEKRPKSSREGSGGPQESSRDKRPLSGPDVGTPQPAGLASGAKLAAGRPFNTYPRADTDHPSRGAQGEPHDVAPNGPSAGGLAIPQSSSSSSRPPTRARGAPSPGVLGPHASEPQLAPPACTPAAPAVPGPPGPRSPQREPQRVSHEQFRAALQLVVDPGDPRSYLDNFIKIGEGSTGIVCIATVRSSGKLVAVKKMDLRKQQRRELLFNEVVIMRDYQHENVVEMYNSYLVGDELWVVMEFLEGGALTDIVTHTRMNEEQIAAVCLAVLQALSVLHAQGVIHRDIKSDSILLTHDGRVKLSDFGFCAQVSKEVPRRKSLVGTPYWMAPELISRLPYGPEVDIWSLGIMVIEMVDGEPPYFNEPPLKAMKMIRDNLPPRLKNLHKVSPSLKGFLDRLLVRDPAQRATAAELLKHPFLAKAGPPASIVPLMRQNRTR
# [8] = target: Serine/threonine-protein kinase PAK 5 (Homo sapiens) (UniProt Q9P286)
# [9] = target: Serine/threonine-protein kinase PAK 6 (Homo sapiens) (UniProt Q9NQU5)
# Sequence of Serine/threonine-protein kinase PAK 6 (Homo sapiens) (Q9NQU5 whole entry, looked up): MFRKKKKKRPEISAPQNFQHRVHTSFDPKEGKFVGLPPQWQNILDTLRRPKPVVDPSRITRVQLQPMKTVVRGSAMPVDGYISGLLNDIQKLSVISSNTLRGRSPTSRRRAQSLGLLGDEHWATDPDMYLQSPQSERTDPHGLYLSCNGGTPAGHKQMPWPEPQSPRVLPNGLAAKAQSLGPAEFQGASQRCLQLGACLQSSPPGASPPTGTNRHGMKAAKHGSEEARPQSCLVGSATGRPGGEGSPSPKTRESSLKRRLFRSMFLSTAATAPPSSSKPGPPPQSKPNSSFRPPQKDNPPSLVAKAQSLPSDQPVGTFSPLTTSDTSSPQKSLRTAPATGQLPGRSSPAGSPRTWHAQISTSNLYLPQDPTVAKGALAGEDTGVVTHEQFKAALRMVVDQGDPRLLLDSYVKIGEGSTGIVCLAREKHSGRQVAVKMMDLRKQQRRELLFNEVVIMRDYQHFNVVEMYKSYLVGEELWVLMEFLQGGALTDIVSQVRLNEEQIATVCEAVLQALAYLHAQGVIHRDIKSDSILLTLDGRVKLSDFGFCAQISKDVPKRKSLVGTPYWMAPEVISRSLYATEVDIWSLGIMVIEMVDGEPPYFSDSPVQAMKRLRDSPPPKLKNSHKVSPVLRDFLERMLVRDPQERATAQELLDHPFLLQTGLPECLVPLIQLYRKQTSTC
# [10] = target: Serine/threonine-protein kinase pim-3 (Homo sapiens) (UniProt Q86V86)
# [11] = target: cAMP-dependent protein kinase catalytic subunit alpha (Homo sapiens) (UniProt P17612)
# [12] = target: Serine/threonine-protein kinase RIO2 (Homo sapiens) (UniProt Q9BVS4)
# Sequence of Serine/threonine-protein kinase RIO2 (Homo sapiens) (Q9BVS4 whole entry, looked up): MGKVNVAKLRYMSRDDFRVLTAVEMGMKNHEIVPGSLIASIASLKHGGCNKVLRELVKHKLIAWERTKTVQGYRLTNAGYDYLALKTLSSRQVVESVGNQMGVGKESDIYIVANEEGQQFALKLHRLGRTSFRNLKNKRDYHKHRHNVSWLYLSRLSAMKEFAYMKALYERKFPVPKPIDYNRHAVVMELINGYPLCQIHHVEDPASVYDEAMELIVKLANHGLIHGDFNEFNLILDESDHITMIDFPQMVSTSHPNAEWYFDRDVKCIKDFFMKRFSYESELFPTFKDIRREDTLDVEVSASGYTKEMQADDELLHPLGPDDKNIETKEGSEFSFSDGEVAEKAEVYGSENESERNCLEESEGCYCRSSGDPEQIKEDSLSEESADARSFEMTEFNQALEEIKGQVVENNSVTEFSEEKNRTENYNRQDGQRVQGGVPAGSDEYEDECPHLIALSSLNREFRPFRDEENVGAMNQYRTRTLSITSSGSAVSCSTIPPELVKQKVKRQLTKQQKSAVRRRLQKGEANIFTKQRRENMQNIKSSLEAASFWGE
# [13] = target: Ribosomal protein S6 kinase alpha-3 (Homo sapiens) (UniProt P51812)
# [14] = target: Serine/threonine-protein kinase 10 (Homo sapiens) (UniProt O94804)
# [15] = target: T3, Serine/threonine-protein kinase 4 (Homo sapiens) (UniProt Q13043)
# T3 sequence (whole entry): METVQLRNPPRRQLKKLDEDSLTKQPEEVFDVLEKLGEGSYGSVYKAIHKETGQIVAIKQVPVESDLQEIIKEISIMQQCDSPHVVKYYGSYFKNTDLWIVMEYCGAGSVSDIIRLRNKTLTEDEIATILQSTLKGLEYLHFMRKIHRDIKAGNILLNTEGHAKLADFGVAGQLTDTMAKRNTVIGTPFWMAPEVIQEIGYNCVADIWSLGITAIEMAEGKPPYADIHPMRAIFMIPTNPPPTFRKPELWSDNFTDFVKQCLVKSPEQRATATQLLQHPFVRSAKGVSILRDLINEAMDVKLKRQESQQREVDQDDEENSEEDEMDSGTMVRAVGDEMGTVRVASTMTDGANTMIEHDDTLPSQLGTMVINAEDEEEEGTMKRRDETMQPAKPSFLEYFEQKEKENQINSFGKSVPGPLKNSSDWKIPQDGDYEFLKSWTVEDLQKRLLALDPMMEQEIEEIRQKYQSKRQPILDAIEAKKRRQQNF
# [16] = target: TRAF2 and NCK-interacting protein kinase (Homo sapiens) (UniProt Q9UKE5)
# [17] = target: Serine/threonine-protein kinase VRK2 (Homo sapiens) (UniProt Q86Y07)
# Sequence of Serine/threonine-protein kinase VRK2 (Homo sapiens) (Q86Y07 whole entry): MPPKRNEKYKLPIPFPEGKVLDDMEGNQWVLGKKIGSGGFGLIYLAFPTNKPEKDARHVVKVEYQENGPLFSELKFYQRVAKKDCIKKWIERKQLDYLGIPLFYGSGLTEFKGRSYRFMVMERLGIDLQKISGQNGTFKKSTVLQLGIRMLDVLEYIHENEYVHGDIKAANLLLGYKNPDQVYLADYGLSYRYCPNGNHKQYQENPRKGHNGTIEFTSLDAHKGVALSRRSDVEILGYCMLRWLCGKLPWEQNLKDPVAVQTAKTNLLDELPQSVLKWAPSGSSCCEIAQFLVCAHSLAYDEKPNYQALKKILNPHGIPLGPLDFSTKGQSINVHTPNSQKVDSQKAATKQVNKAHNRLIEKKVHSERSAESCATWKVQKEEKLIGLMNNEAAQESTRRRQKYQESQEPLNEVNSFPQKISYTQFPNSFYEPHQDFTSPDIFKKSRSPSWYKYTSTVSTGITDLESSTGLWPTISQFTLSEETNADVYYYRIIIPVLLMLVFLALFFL
# [18] = target: T4, Serine/threonine-protein kinase VRK3 (Homo sapiens) (UniProt Q8IV63)
# T4 sequence (whole entry): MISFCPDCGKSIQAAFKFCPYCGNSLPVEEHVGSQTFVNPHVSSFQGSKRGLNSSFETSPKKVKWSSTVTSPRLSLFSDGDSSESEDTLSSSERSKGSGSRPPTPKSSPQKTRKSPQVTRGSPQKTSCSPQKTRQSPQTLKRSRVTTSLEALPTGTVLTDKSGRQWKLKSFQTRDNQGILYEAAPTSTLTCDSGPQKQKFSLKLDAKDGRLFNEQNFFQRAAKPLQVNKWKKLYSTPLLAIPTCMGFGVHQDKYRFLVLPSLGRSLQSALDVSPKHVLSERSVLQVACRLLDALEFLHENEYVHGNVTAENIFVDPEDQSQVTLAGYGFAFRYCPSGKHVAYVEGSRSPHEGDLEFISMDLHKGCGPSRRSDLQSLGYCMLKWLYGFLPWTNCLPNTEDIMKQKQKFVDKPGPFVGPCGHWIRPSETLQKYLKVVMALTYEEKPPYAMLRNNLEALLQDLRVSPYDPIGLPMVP
# [19] = target: Serine/threonine-protein kinase 25 (Homo sapiens) (UniProt O00506)
# Sequence of Serine/threonine-protein kinase 25 (Homo sapiens) (O00506 whole entry, looked up): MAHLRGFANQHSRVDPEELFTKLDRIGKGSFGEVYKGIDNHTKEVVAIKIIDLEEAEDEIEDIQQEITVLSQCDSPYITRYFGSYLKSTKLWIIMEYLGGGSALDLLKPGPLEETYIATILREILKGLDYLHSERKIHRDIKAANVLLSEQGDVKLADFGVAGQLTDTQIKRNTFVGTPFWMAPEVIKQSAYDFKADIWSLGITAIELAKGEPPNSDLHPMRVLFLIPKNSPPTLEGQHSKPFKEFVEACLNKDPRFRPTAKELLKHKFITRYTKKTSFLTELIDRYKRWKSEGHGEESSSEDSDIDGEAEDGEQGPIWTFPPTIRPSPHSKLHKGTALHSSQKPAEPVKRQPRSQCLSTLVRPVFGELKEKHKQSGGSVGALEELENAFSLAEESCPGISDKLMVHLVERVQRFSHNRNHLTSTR
# Sequence of Calcium/calmodulin-dependent protein kinase type II subunit gamma (Homo sapiens) (Q13555 whole entry): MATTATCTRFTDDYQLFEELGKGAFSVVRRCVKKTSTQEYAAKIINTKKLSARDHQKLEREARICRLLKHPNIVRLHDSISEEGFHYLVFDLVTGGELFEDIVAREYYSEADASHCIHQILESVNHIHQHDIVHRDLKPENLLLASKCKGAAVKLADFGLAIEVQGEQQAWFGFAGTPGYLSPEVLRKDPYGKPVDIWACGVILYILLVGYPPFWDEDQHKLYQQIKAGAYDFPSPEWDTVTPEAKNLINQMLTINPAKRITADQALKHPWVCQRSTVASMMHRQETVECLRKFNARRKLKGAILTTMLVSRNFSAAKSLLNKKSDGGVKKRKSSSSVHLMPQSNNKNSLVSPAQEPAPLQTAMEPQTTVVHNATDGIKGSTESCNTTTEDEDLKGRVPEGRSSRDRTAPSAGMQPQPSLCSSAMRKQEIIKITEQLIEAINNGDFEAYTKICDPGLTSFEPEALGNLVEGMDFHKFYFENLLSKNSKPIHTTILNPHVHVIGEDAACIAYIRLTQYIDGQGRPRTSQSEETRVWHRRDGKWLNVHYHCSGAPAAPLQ
SMILES,ΔTm [1] [°C],ΔTm [2] [°C],ΔTm [3] [°C],ΔTm [4] [°C],ΔTm [5] [°C],ΔTm [6] [°C],ΔTm [7] [°C],ΔTm [8] [°C],ΔTm [9] [°C],ΔTm [10] [°C],ΔTm [11] [°C],ΔTm [12] [°C],ΔTm [13] [°C],ΔTm [14] [°C],ΔTm [15] [°C],ΔTm [16] [°C],ΔTm [17] [°C],ΔTm [18] [°C],ΔTm [19] [°C]
N#CCCc1ccc2c(c1)-c1[nH]c3ccc([N+](=O)[O-])cc3c1CC(=O)N2 [ALSTERPAULLONE 2],0.1,0.4,1.6,0.8,0.5,1.7,4.3,3.9,2.3,1.9,1.1,1.2,4.1,4,5.9,5.4,0.7,0.6,4.2
CN(C)c1ncnc2nc[nH]c12 [DIMETHYLADENINE],0,0.1,0.5,0.2,0.1,-0.1,0.5,0,-0.3,0.9,0.7,0.1,0.6,-0.4,1.1,0,0,-1,0.9
